Here are results for 1 compound from patent publication US5411740A (ALZA Corporation, priority 1994, dated 1995).

Where two headings read alike, the source gives them in different places.

Data set [1] in a line: clinical. Type of data set: in vivo, human. To be noted: system worn for 24 hours. The procedure: Therapeutic blood levels from about 0.5 ng/ml to about 3.0 ng/ml can be obtained from administration rates in the range of 0.08 mg/hr to 0.5 mg/hr. […] Therapeutic blood levels can be achieved within approximately 1-5 hours, and peak blood concentrations are achieved at about 3 hours when the system is worn for 24 hours. […] The system application is easily adapted for shorter or longer duration treatments, but generally 24 hours is the nominal duration for treatment.

The conditions of data set [2]: 25 mg/ml oxybutynin reservoir, 20 μm polybutadiene film, cited from earlier work.
The format of data set [3] is in vivo, human. The procedure:
(§1) Addition time was approximately 45 minutes.

Data set [4] in a line: clinical. To be noted: human, in vivo, topical or ocular; for concentration at 24 h: after 24 hours; for concentration at 12 h: after 12 hours. The procedure:
as §1
No in-line adhesive was present. […] There was a 3M acrylate in-line adhesive present.
The in vivo plasma levels of oxybutynin were measured for two body sites. A 10 cm^2 device was worn on the penis for 101/2 hours and two 10 cm^2 devices were worn on the inner thigh for 24 hours. A control sample was drawn before applying the systems.
The other subject achieved a plasma level of 0.7 ng/mL after 12 hours, and the plasma level was 0.8 ng/mL after 24 hours.

[5] abbreviates: plasma oxybutynin concentration, two 10 cm^2 systems on inner thigh.
Setting [6] is: plasma oxybutynin level, additional subject (the other), two 10 cm^2 systems on inner thigh.

Consider `CCN(CC)CC#CCOC(=O)C(O)(c1ccccc1)C1CCCCC1` (stereo not shown) [oxybutynin, 4-diethylamino-2-butynylphenylcyclohexylglycolate], for which the Tmax in “clinical [1]” (human, in vivo, topical or ocular, read-out: time of peak blood concentrations) was approximately 3 h. For the same compound, in the data set “clinical [1]”, the “time to achieve therapeutic blood levels” value lay in the range of 1 to 5 h. In data set [2] (49 cm^2 area), the “in vitro release rate” value is given as approximately 10 μg/cm^2 /hr. The “in vitro release over 24 hours” value in data set [2] (over 24 hours through a 49 cm^2 area) is “approximately 12 mg”. For the same compound, the “Measured Drug Loss” value was found to be 5.8 mg/20 cm^2 /day in data set [3] (subject 1, inner thigh); 8.6 mg/20 cm^2 /day in data set [3] (subject 2, inner thigh); 6.7 mg/20 cm^2 /day in data set [3] (subject 3, chest); 7.2 mg/20 cm^2 /day in data set [3] (subject 4, abdomen); 19.2 mg/20 cm^2 /day in data set [3] (subject 5, penis). This compound also came in with a concentration at 9 h in the data set “clinical [4]” (plasma oxybutynin concentration, additional subject (one), two 10 cm^2 systems on inner thigh, after 9 hours) of 2 ng/mL. Besides, the concentration at 24 h in the data set “clinical [4]” (plasma oxybutynin concentration, additional subject (one), two 10 cm^2 systems on inner thigh) came out at 1.7 ng/mL; in the data set “clinical [4]” (setting [5]), 1.1 ng/mL; in the data set “clinical [4]” (setting [6]) it was 0.8 ng/mL. Besides, the concentration at 12 h came out at 0.9 ng/mL in the data set “clinical [4]” (setting [5]) and 0.7 ng/mL in the data set “clinical [4]” (setting [6]). The concentration at 4 h in “clinical [4]” (plasma oxybutynin level, 10 cm^2 device on the penis, within 4 hours) turned out to be 2 ng/mL.
